Experiment [1] has as its target PD1 (SEQ ID NO:1) conjugated to a His tag (Homo sapiens, UniProt Q15116). Put plainly: ELISA of anti-PD1 antibody titre in immunised rabbits on PD1 coated plates. Type of experiment: binding. Particulars: for anti-PD1 antibody response / titre raised in immunised rabbits (in words): rabbits immunised with KLH-conjugated peptide in Freund's adjuvant. As for the experimental part: Approximately 250-500 μg of each KLH-conjugated peptide fragment was diluted with saline and subsequently emulsified in complete or incomplete Freund's adjuvant at a mass ratio of 1:1. The emulsified solution was administered to rabbits by subcutaneous injection around the shoulders and intramuscular injection into the legs in accordance with the following immunization protocol: • i. Day 00—Serum collected 2 ml (for 0.5-1.0 ml pre-immune serum; • ii. Day 01—1st-immunization, complete Freund's adjuvant, 500 μg peptide fragment; • iii. Day 15—2nd-immunization, complete Freund's adjuvant, 500 μg peptide fragment; • iv. Day 29—3rd-immunization, incomplete Freund's adjuvant, 250 μg peptide fragment; • v. Day 35—Serum collected, 2-3 ml for assessment of anti-PD1 antibody titre by ELISA; • vi. Day 36—4th-immunization, incomplete Freund's adjuvant, 250 μg peptide fragment (optional); • vii. Day 43—5th-immunization, incomplete Freund's adjuvant. 250 μg peptide fragment (optional); • viii. Day 50—6th-immunization, incomplete Freund's adjuvant 250 μg peptide fragment (optional); • ix. Day 57—7th-immunization, incomplete Freund's adjuvant 250 μg peptide fragment (optional); • x. Day 63—Blood sample is collected from the immunised rabbits. B. Assessment of Anti-PDJ Antibody Titre in Immunised Rabbits by ELISA
An enzyme-linked immunosorbent assays (ELISA) was used to measure the anti-PD1 antibody titre in the blood samples collected from the immunized rabbits. Briefly, microtiter plates were coated with PD1 (SEQ ID NO:1) conjugated to a His tag. After blocking the wells of the microtiter plates with BSA to minimise non-specific binding, diluted sera from the immunized rabbits were added to the plates and incubated on a shaker for around 1 hr at 20° C. (or alternatively overnight at 4° C.). The plates were then washed four times with PBS/0.1% v/v Tween 20 and excess wash buffer was removed from each well.
Approximately 100 μL of a horseradish peroxidase-labeled anti-rabbit antibody was then added to each well and incubated for around 1 hr at 20° C. The plates were then washed four times with PBS/0.1% v/v Tween 20 and excess wash buffer was removed from each well. The plates were then washed twice with PBS only, to remove traces of Tween remaining from the washing buffer.
To detect the presence of horseradish peroxidase-labeled, anti-rabbit antibody, 100 μL of 1-Step™ ABTS (Pierce Cat. No. 37615) was added to each well and incubated for up to 45 min at 20° C. The absorbance of any colour change in each well was read using a microtitre Titertek Multiskan MC plate reader in the dual wavelength mode at 405 nm against a reference wavelength of 492 nm and compared to appropriate negative controls, such as the colour change observed in a well to which no PD1 was added, to which no immunised rabbit sera was added and/or to which no horseradish peroxidase-labeled, anti-rabbit antibody was added.
Approximately 250-500 μg of each KLH-conjugated fusion peptides were diluted with saline and subsequently emulsified in complete or incomplete Freund's adjuvant at a mass ratio of 1:1. The emulsified solutions were administered to rabbits by subcutaneous injection around the shoulders and intramuscular injection into the legs in accordance with the immunization protocol of Example 2, above.
An enzyme-linked immunosorbent assays (ELISA) was used to measure the anti-PD1 antibody titre in the blood samples collected from the immunized rabbits, in accordance with the methodology set out in Example 2 above. The absorbance readings from the ELISA assay are shown in Table 8, below (SEQ TD NO:9 is underlined): […]

Experiment [2] relates to PD1 protein from other species—mouse, rat, Rhesus monkey, Cynomolgus monkey and canine. The experiment can be described thus: Cross-reactivity ELISAs, summary over species. Type of experiment: binding. The following applies: for cross-reactivity of affinity-purified anti-PD1 antibodies from animals immunised with the peptide with PD1 protein from other species: mouse, rat, Rhesus monkey, Cynomolgus monkey and canine. As for the experimental part: To assess whether or not the anti-human PD1 antibodies raised in the immunised rabbits would cross-react with PD1 of other species, the anti-PD1 antisera from the Examples 7 and 8, above, were screened in an ELISA assay for binding to mouse, rhesus monkey, canine and rat PD1 proteins.
A further ELISA assay was performed to make a direct comparison of the cross-reactivity of anti-human PD1 antibodies raised in the immunised rabbits (Rabbits 1 and 2) to PD1 proteins of different species.

“Also recorded” adds a separate entry of the source.

Sequence of PD1 (SEQ ID NO:1) conjugated to a His tag (Q15116 25-170): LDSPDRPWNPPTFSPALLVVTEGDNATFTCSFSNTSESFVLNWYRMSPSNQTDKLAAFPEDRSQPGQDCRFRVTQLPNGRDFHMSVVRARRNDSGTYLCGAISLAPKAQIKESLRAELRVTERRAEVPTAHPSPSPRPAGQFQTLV

Turning to “FPEDRSQPGQDC (listed as Homo sapiens) [SEQ ID NO:29]”, the “anti-PD1 antibody response / titre raised in immunised rabbits (in words)” value in experiment [1] was “raising an anti-PD1 antibody response; also recorded: sufficient anti-PD1 antibody titres”. Besides, in experiment [2], the “species of greatest cross-reactivity of the anti-PD1 antibodies raised with the peptide” value is “greatest cross-reactivity to PD1 protein from Rhesus and Cynomolgus monkeys”; the “cross-reactivity of affinity-purified anti-PD1 antibodies from animals immunised with the peptide with PD1 protein from other species” value (shortened to “cross-reactivity … from other species”) was “at least some cross-reactivity”.
“FSPALLVVTEGD (listed as Homo sapiens) [SEQ ID NO:14]”: in experiment [1], the “anti-PD1 antibody response / titre raised in immunised rabbits (in words)” value is on record as “raising an anti-PD1 antibody response; also recorded: sufficient anti-PD1 antibody titres”. Further, in experiment [2], the “species of greatest cross-reactivity of the anti-PD1 antibodies raised with the peptide” value is “greatest cross-reactivity to PD1 protein from Rhesus and Cynomolgus monkeys”; the “cross-reactivity … from other species” value is “at least some cross-reactivity”.
As for “GAISLAPKAQIK (listed as Homo sapiens) [SEQ ID NO:43]”, in experiment [1], the “anti-PD1 antibody response / titre raised in immunised rabbits (in words)” value is on record as “raising an anti-PD1 antibody response; also recorded: sufficient anti-PD1 antibody titres”. Further, in experiment [2], the “species of greatest cross-reactivity of the anti-PD1 antibodies raised with the peptide” value was “greatest cross-reactivity to PD1 protein from Rhesus and Cynomolgus monkeys”; the “cross-reactivity … from other species” value is recorded as “at least some cross-reactivity”.
As for “GAISLAPKAQIKGWFLDSPDRPWN (listed as Homo sapiens) [SEQ ID NO:57]”, in experiment [1], the “anti-PD1 antibody response / titre raised in immunised rabbits (in words)” value is “Anti-PD1 antibodies were also raised”. In experiment [2], the “species of greatest cross-reactivity of the anti-PD1 antibodies raised with the peptide” value was “greatest cross-reactivity to PD1 protein from Rhesus and Cynomolgus monkeys”; the “cross-reactivity … from other species” value is on record as “at least some cross-reactivity”.
Turning to “GWFLDSPDRPWN (listed as Homo sapiens) [SEQ ID NO:9]”, the “anti-PD1 antibody titre compared to the other peptide sequences” value in experiment [1] (immunised rabbits) is on record as “highest anti-PD1 antibody titre; also recorded: higher anti-PD1 antibody titre”. Moreover, the “anti-PD1 antibody response / titre raised in immunised rabbits (in words)” value in experiment [1] is “raising an anti-PD1 antibody response; also recorded: sufficient anti-PD1 antibody titres”. In experiment [2], the “species of greatest cross-reactivity of the anti-PD1 antibodies raised with the peptide” value is “greatest cross-reactivity to PD1 protein from Rhesus and Cynomolgus monkeys”; the “cross-reactivity … from other species” value is on record as “at least some cross-reactivity”.
With “GWFLDSPDRPWNGAISLAPKAQIK (listed as Homo sapiens) [SEQ ID NO:56]”, the “anti-PD1 antibody response / titre raised in immunised rabbits (in words)” value in experiment [1] is “Anti-PD1 antibodies were also raised”. Also, in experiment [2], the “species of greatest cross-reactivity of the anti-PD1 antibodies raised with the peptide” value was “greatest cross-reactivity to PD1 protein from Rhesus and Cynomolgus monkeys”; the “cross-reactivity … from other species” value is “at least some cross-reactivity”.
Regarding “LAAFPEDRSQPG (listed as Homo sapiens) [SEQ ID NO:28]”, the “anti-PD1 antibody response / titre raised in immunised rabbits (in words)” value in experiment [1] was “raising an anti-PD1 antibody response; also recorded: sufficient anti-PD1 antibody titres”. For the same sequence, in experiment [2], the “species of greatest cross-reactivity of the anti-PD1 antibodies raised with the peptide” value is “greatest cross-reactivity to PD1 protein from Rhesus and Cynomolgus monkeys”; the “cross-reactivity … from other species” value was “at least some cross-reactivity”.
Consider “LDSPDRPWNPPT (listed as Homo sapiens) [SEQ ID NO:10]”, for which the “anti-PD1 antibody response / titre raised in immunised rabbits (in words)” value in experiment [1] is “raising an anti-PD1 antibody response; also recorded: sufficient anti-PD1 antibody titres”. For the same sequence, in experiment [2], the “species of greatest cross-reactivity of the anti-PD1 antibodies raised with the peptide” value is “greatest cross-reactivity to PD1 protein from Rhesus and Cynomolgus monkeys”; the “cross-reactivity … from other species” value was “at least some cross-reactivity”.

Source of the values: patent US12311019B2, “Vaccine composition and uses thereof” (Imugene Limited, priority 2018, dated 2025).
